The test system of experiment [1] is TNF-α. The experiment in a line: Inhibition of TNF-α secretion in LPS stimulated peripheral blood mononuclear cells. Type of experiment: cell-based. To be noted: PBMC; LPS stimulated human peripheral blood mononuclear cells, 18 hours, ELISA; read-out: The median inhibition concentration (IC50, nM) of TNF-α. The method, then:
(§1) To study the effect of compounds of the present invention in vitro, the inhibition of IL-1β and TNF-α secretion was determined using the following procedure:
(§2) Cytokine production was measured in the media from lipopolysaccharide (LPS) stimulated peripheral blood mononuclear cells. The mononuclear cells were isolated from human peripheral blood by Lymphoprep® (Nycomed, Norway) fractionation and suspended in RPMI 1640 (growth medium) with foetal calf serum (FCS, 2%), at a concentration of 5×10^5 cells/ml. The cells were incubated in 24-well tissue culture plates in 1 ml aliquots. Test compounds were dissolved in dimethylsulfoxide (DMSO, 10 mM) and were diluted with the medium. Compounds were added to the cells for 30 minutes, then LPS ([…] final concentration) was added. The plates were incubated for 18 hours, and the concentration of IL-β and TNF-α in the medium was determined by enzyme-linked immunosorbent assays. The median inhibitory concentrations (IC50) of the compounds were calculated.

For experiment [2], the system named is IL-1β. Kind of experiment: Inhibition of IL-1β secretion in LPS stimulated peripheral blood mononuclear cells. Format: cell-based. To be noted: PBMC; LPS stimulated human peripheral blood mononuclear cells, 18 hours, ELISA; read-out: The median inhibition concentration (IC50, nM) of IL-1β. The procedure:
as §1, §2

For `COc1ccc(C(=O)NCCF)cc1C(=O)c1ccc(Nc2ccccc2)cc1Cl` [Compound 201, 3-(2-Chloro-4-phenylamino-benzoyl)-N-(2-fluoro-ethyl)-4-methoxy-benzamide], the IC50 in experiment [1] is 3.2 nM; in experiment [2], 7.9 nM.

Take `COCCC(=O)Nc1ccc(C)c(C(=O)c2ccc(Nc3ccc(F)cc3F)cc2Cl)c1` [Compound 241, N-{3-[2-Chloro-4-(2,4-difluoro-phenylamino)-benzoyl]-4-methyl-phenyl}-3-methoxy-propionamide]: the IC50 turned out to be 0.3 nM in experiment [1] and 1.1 nM in experiment [2].

For `Cc1ccc(NC(=O)OCc2ccccc2)cc1C(=O)c1ccc(Nc2ccc(F)cc2F)cc1Cl` [Compound 277, {3-[2-Chloro-4-(2,4-difluoro-phenylamino)-benzoyl]-4-methyl-phenyl}-carbamic acid benzyl ester], the IC50 came out at 0.8 nM in experiment [1] and 2.5 nM in experiment [2].

Regarding `Cc1cc(F)ccc1Nc1ccc(C(=O)c2cc(C(=O)NCCCN3CCOCC3)ccc2C)c(Cl)c1` [Compound 107, 3-[2-Chloro-4-(4-fluoro-2-methylphenylamino)benzoyl]-4-methyl-N-(3-morpholin-4-yl-propyl)benzamide], the IC50 in experiment [1] and in experiment [2] was 3.2 nM throughout.

`CCOC(=O)Nc1ccc(C)c(C(=O)c2ccc(Nc3ccc(F)cc3F)cc2Cl)c1` [Compound 279, {3-[2-Chloro-4-(2,4-difluoro-phenylamino)-benzoyl]-4-methyl-phenyl}-carbamic acid ethyl ester]: the results for the IC50 in experiment [1] and in experiment [2] were 0.5 nM and 0.6 nM, respectively.

In the case of `COc1ccc(COC(C)=O)cc1C(=O)c1ccc(Nc2ccc(F)cc2F)cc1Cl` [Compound 336, Acetic acid 3-[2-chloro-4-(2,4-difluoro-phenylamino)-benzoyl]-4-methoxy-benzyl ester], the IC50 was found to be 2 nM in experiment [1] and 5 nM in experiment [2].

As to `COc1ccc(C(=O)NCCO)cc1C(=O)c1ccc(Nc2ccccc2)cc1Cl` [Compound 195, 3-(2-Chloro-4-phenylamino-benzoyl)-N-(2-hydroxy-ethyl)-4-methoxy-benzamide], the figures for the IC50 in experiment [1] and in experiment [2] were 1 nM and 2.2 nM, respectively.

In the case of `Cc1ccc(C(=O)NCCO)cc1C(=O)c1ccc(Nc2ccc(F)cc2)cc1Cl` [Compound 190, 3-[2-Chloro-4-(4-fluoro-phenylamino)-benzoyl]-N-(2-hydroxy-ethyl)-4-methyl-benzamide], the IC50 in experiment [1] was 0.3 nM; in experiment [2], 0.6 nM.

`COC(=O)CCC(=O)CNC(=O)c1ccc(C)c(C(=O)c2ccc(Nc3ccc(F)cc3F)cc2Cl)c1` [Compound 167, 5-{3-[2-chloro-4-(2,4-difluoro-phenylamino)-benzoyl]-4-methyl-benzoylamino}-4-oxo-pentanoic acid methyl ester]: the IC50 in experiment [1] turned out to be 2 nM; in experiment [2], 1.7 nM.

Take `COc1ccc(C(=O)NCC(N)=O)cc1C(=O)c1ccc(Nc2ccccc2)cc1Cl` [Compound 203, N-Carbamoylmethyl-3-(2-chloro-4-phenylamino-benzoyl)-4-methoxy-benzamide]: the IC50 in experiment [1] came out at 3.2 nM; in experiment [2] it was 6.3 nM.

As to `COc1ccc(C(=O)NCC(N)=O)cc1C(=O)c1ccc(Nc2ccc(F)cc2F)cc1Cl` [Compound 144, N-Carbamoylmethyl-3-[2-chloro-4-(2,4-difluoro-phenylamino)-benzoyl]-4-methoxy-benzamide], the values for the IC50 in experiment [1] and in experiment [2] were 0.6 nM and 1 nM, respectively.

`Cc1cc(F)ccc1Nc1ccc(C(=O)c2cc(C(=O)NCCO)ccc2C)c(Cl)c1` [Compound 119, 3-[2-Chloro-4-(4-fluoro-2-methylphenylamino)benzoyl]-N-(2-hydroxyethyl)-4-methylbenzamide]: the IC50 in experiment [1] came out at 0.4 nM; in experiment [2], 1.3 nM.

For `CNC(=O)c1ccc(C)c(C(=O)c2ccc(Nc3ccc(Cl)cc3F)cc2Cl)c1` [Compound 121, 3-[2-Chloro-4-(4-chloro-2-fluoro-phenylamino)-benzoyl]-4,N-dimethyl-benzamide], the IC50 turned out to be 0.6 nM in experiment [1] and 2.8 nM in experiment [2].

The record behind these values is patent US7977387B2, “Aminobenzophenone compounds” (Leo Pharma A/S, priority 2003, dated 2011).
